Laboratory results taken from paper PMC8666671, “Fine-tuning spermidine binding modes in the putrescine binding protein PotF” (The Journal of Biological Chemistry, 2021).
Substitutions are numbered along the chain they refer to. Several values for one entry are separate records, joined by “and”; a condition that tells them apart may be missing. Identical values can stand only once. Like-named read-outs stand apart in the source and are kept apart here.

What was measured:
PotF_Dist = target: T1, PotF_Dist (Escherichia coli, UniProt P31133, A182D/L348Q/S87Y); test: ITC, PotF_Dist (S87Y, A182D, L348Q); type: binding; settings: 293 K
T1 construct: without the N-terminal signal peptide; made in house; host or cells: E. coli BL21 (DE3)
T1 sequence (P31133 27-370 S87Y/A182D/L348Q): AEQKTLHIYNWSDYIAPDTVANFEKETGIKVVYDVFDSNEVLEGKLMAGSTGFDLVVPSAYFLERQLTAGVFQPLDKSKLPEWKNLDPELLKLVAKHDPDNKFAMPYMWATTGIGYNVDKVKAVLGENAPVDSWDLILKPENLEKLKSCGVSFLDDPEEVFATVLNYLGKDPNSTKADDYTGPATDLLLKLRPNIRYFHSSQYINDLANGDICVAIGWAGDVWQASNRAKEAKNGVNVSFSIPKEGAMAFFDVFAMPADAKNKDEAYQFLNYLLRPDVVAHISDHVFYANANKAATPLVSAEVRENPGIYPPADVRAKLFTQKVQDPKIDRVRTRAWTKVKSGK
Procedure: (§1) Ligands were always freshly prepared in the exact same buffer as was used for the size exclusion run. Samples were degassed, and temperature was equilibrated using a degassing station (TA Instruments). About 400 μl protein sample of different concentrations (Table S5) depending on affinity was transferred into the sample cell of a nanoITC (TA Instruments), and 50 μl of about tenfold concentrated ligand solution was loaded into the injection needle. Multiple injection measurements were carried out at 293 K, 300 rpm stirring rate, and 250 s spacings between each 2 μl injection. The heat quantity past injection was determined by integration of the measured peaks. Every protein–ligand combination was measured as biological triplicate. Subtraction of heat of dilution measurements, peak integration, and one site binding fits were done with NanoAnalyze (TA Instruments). Reported errors are the errors between fits of the measured triplicates.

PotF_Abox-S87Y = target: T2, PotF_Abox-S87Y (Escherichia coli, UniProt P31133, F276W/S87Y); test: ITC, PotF_Abox-S87Y (F276W, S87Y); type: binding; settings: 293 K; for n: ITC binding stoichiometry; for ΔG / ΔH / −TΔS / Kd: ITC; for Kd: 50 mM Tris pH 8, 300 mM NaCl, biological triplicates
T2 construct: without the N-terminal signal peptide; made in house; host or cells: E. coli BL21 (DE3)
T2 sequence (P31133 27-370 S87Y/F276W): T1 sequence (P31133 27-370 S87Y/A182D/L348Q) with D156A, F250W, Q322L
Procedure: as §1

PotF_Abox-A182D = target: T3, PotF_Abox-A182D (Escherichia coli, UniProt P31133, A182D/F276W); test: ITC, PotF_Abox-A182D (F276W, A182D); type: binding; settings: for n: ITC binding stoichiometry; for n / Kd / ΔG / ΔH / −TΔS: 293 K, PotF_Abox-A182D; for Kd / ΔG / ΔH / −TΔS: ITC; for Kd: 50 mM Tris pH 8, 300 mM NaCl, biological triplicates
T3 construct: without the N-terminal signal peptide; made in house; host or cells: E. coli BL21 (DE3)
T3 sequence (P31133 27-370 A182D/F276W): T1 sequence (P31133 27-370 S87Y/A182D/L348Q) with Y61S, F250W, Q322L
Procedure: as §1

PotF_Abox-L348Q = target: T4, PotF_Abox-L348Q (Escherichia coli, UniProt P31133, F276W/L348Q); test: ITC, PotF_Abox-L348Q (F276W, L348Q); type: binding; settings: 293 K; for n: ITC binding stoichiometry; for ΔG / ΔH / −TΔS / Kd: ITC; for Kd: 50 mM Tris pH 8, 300 mM NaCl, biological triplicates
T4 construct: without the N-terminal signal peptide; made in house; host or cells: E. coli BL21 (DE3)
T4 sequence (P31133 27-370 F276W/L348Q): T1 sequence (P31133 27-370 S87Y/A182D/L348Q) with Y61S, D156A, F250W
Procedure: as §1

PotF/D–E39D–F88L–S247D = target: T5, PotF/D–E39D–F88L–S247D (Escherichia coli, UniProt P31133, A182D/F276W/F88L/L348Q/S38T/S87Y); test: ITC, PotF/D–E39D–F88L–S247D; type: binding; settings: 293 K; for n: ITC binding stoichiometry; for ΔG / ΔH / −TΔS / Kd: ITC; for Kd: 50 mM Tris pH 8, 300 mM NaCl, biological triplicates
T5 construct: without the N-terminal signal peptide; made in house; host or cells: E. coli BL21 (DE3)
T5 sequence (P31133 27-370 S38T/S87Y/F88L/A182D/F276W/L348Q): T1 sequence (P31133 27-370 S87Y/A182D/L348Q) with S12T, F62L, F250W
Procedure: as §1

PotF = target: PotF; parameters: method as in PMID 33406388; settings: PotF wildtype, cited from earlier work
[1] = ITC, 50 mM Tris pH 8, 300 mM NaCl, biological triplicates

| Structure (SMILES) | KD (PotF_Dist; [1]) | n (PotF_Abox-S87Y) | ΔG (PotF_Abox-S87Y) [kcal/mol] | ΔH (PotF_Abox-S87Y) [kcal/mol] | −TΔS (PotF_Abox-S87Y) [kcal/mol] | Kd (PotF_Abox-S87Y) [µM] | n (PotF_Abox-A182D) | Kd (PotF_Abox-A182D) | ΔG (PotF_Abox-A182D) [kcal/mol] | ΔH (PotF_Abox-A182D) [kcal/mol] | −TΔS (PotF_Abox-A182D) [kcal/mol] | n (PotF_Abox-L348Q) | ΔG (PotF_Abox-L348Q) [kcal/mol] | ΔH (PotF_Abox-L348Q) [kcal/mol] | −TΔS (PotF_Abox-L348Q) [kcal/mol] | Kd (PotF_Abox-L348Q) | n (PotF/D–E39D–F88L–S247D) | ΔG (PotF/D–E39D–F88L–S247D) [kcal/mol] | ΔH (PotF/D–E39D–F88L–S247D) [kcal/mol] | −TΔS (PotF/D–E39D–F88L–S247D) [kcal/mol] | other results |
| --- | --- | --- | --- | --- | --- | --- | --- | --- | --- | --- | --- | --- | --- | --- | --- | --- | --- | --- | --- | --- | --- |
| NCCCCN [PUT, putrescine] | abolishes association | 0.92 ± 0.03 | -6.47 ± 0.02 | -9.97 ± 0.20 | 3.50 ± 0.18 | 14.9 ± 0.54 | 0.91 ± 0.01 | ~83 µM and 83.2 µM | -5.45 ± 0.02 | -9.79 ± 0.09 | 4.33 ± 0.08 | 0.94 ± 0.03 | -7.48 ± 0.02 | -14.22 ± 0.75 | 6.74 ± 0.74 | ~3.3 µM and 2.66 µM | 0.90 ± 0.01 | -4.97 ± 0.13 | -5.54 ± 0.73 | 0.57 ± 0.86 | decrease of PUT affinity (PotF_Abox-A182D; PotF_Abox-A182D compared with wildtype PotF): around 1200 fold; Kd (PotF/D–E39D–F88L–S247D): 203 ± 43.1 µM; Kd (PotF; ITC): 0.07 ± 0.04 µM; ΔG (PotF; ITC): -9.74 ± 0.40 kcal/mol; ΔH (PotF; ITC): -23.02 ± 0.12 kcal/mol; −TΔS (PotF; ITC): 13.28 ± 0.52 kcal/mol; Kd (PotF): ~0.068 µM |
| NCCCCNCCCN [SPD, spermidine] | very low | 0.97 ± 0.02 | -6.30 ± 0.02 | -5.66 ± 0.12 | -0.65 ± 0.12 | 20 ± 0.7 | 0.91 ± 0.02 | ~3.1 µM and 3.13 µM | -7.39 ± 0.11 | -4.37 ± 0.20 | -3.02 ± 0.15 | 0.98 ± 0.01 | -7.83 ± 0.68 | -7.72 ± 0.03 | -0.11 ± 0.69 | ~2.6 µM and 3.26 µM | 0.93 ± 0.01 | -7.35 ± 0.09 | -4.19 ± 0.06 | -3.17 ± 0.10 | n (PotF_Dist; ITC binding stoichiometry): 0.91 ± 0.02; ΔG (PotF_Dist; ITC): -5.48 ± 0.20 kcal/mol; ΔH (PotF_Dist; ITC): -1.83 ± 0.08 kcal/mol; −TΔS (PotF_Dist; ITC): -3.65 ± 0.28 kcal/mol; Kd (PotF_Dist; [1]): 88.2 ± 33.1 µM; Kd (PotF/D–E39D–F88L–S247D): 3.33 ± 0.53 µM; Kd (PotF; ITC): 29.7 ± 1.15 µM; ΔG (PotF; ITC): -6.07 ± 0.02 kcal/mol; ΔH (PotF; ITC): -3.65 ± 0.06 kcal/mol; −TΔS (PotF; ITC): -2.42 ± 0.04 kcal/mol |
